Reference: patent US8383651B2, “Compounds which selectively modulate the CB2 receptor” (Boehringer Ingelheim International GmbH, priority 2009, dated 2013)
Like-named read-outs stand apart in the source and are kept apart here.

Legend:
human CB1R = target: T1, human CB1R (Homo sapiens, UniProt P21554); assay: CB1R mediated modulation of cAMP synthesis; assay type: cell-based; conditions: inhibition of forskolin-stimulated cAMP synthesis
T1 construct: host or cells: CHO cells
Experimental: C. CB1R Mediated Modulation of cAMP Synthesis:
Compounds of the invention are evaluated for their CB1 agonist or inverse agonistic activity in accordance with the following experimental method.
(§1) CHO cells expressing human CB1R (Euroscreen) are plated at a density of 5000 cells per well in 384 well plates and incubated overnight at 37° C. After removing the media, the cells are treated with test compounds diluted in stimulation buffer containing 1 mM IBMX, 0.25% BSA and 10 uM Forskolin. The assay is incubated for 30 minutes at 37° C. Cells are lysed and the cAMP concentration is measured using DiscoverX-XS cAMP kit, following the manufacturer's protocol. In this setting, agonists will decrease forskolin induced production of cAMP while inverse agonists will further increase forskolin induced production of cAMP. EC50 of agonists are calculated as follows. The maximal amount of cAMP produced by forskolin compared to the level of cAMP inhibited by 1 uM CP55940 is defined as 100%. The EC50 value of each test compound is determined as the concentration at which 50% of the forskolin-stimulated cAMP synthesis is inhibited. Data is analyzed using a four-parameter logistic model. (Model 205 of XLfit 4.0).

human CB2R = target: T2, human CB2R (Homo sapiens, UniProt P34972); assay: CB2R mediated modulation of cAMP synthesis; assay type: cell-based
T2 construct: host or cells: CHO cells
Experimental: B. CB2R Mediated Modulation of Camp Synthesis:
Compounds of the invention are evaluated for their CB2 agonist or inverse agonistic activity in accordance with the following experimental method.
as §1, with “CB2R” for “CB1R”

[1] = CHO cells expressing human CB1R, read-out: CB1 EC50
[2] = CHO cells expressing human CB2R, inhibition of forskolin-stimulated cAMP synthesis, read-out: CB2 EC50
[3] = CB1 EC50, CHO cells expressing human CB1R

T2 sequence (P34972 whole entry): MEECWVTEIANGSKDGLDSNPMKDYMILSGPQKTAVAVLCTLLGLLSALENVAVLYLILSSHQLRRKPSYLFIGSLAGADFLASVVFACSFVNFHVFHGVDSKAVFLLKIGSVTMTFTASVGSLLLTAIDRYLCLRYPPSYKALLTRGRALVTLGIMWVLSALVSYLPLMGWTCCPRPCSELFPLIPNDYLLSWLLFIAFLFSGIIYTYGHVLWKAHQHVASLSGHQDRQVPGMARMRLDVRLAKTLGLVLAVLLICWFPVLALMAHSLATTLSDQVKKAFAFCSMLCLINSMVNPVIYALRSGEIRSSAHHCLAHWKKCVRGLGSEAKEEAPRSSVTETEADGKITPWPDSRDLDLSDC
T1 sequence (P21554 whole entry): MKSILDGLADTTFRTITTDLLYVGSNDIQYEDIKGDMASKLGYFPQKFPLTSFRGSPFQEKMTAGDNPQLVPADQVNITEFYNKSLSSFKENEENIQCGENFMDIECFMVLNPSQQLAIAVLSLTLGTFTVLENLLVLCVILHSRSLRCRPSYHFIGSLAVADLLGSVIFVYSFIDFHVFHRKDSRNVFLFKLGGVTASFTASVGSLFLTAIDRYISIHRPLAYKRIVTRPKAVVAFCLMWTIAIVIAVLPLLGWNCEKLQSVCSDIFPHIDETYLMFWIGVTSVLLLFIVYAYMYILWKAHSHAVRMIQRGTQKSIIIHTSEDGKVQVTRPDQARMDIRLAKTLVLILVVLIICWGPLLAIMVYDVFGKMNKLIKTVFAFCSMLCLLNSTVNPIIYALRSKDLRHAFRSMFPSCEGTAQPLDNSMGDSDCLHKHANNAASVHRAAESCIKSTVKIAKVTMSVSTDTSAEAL

| SMILES | EC50 (human CB1R; [1]) [nM] | EC50 (human CB2R; [2]) [nM] | EC50 (human CB1R; [3]) [nM] | EC50 (human CB2R) [nM] |
| --- | --- | --- | --- | --- |
| CC(C)(C(=O)Nc1nnc(-c2nccs2)[nH]1)S(=O)(=O)C1CCOCC1 | > 50000 | 303 |  |  |
| Cc1nnc(C(C)(C)c2cc(NC(=O)C(C)(C)S(=O)(=O)CCCC(F)(F)F)on2)o1 |  |  | 23100 | 18 |
| Cc1ncc(C2(c3cc(NC(=O)C(C)(C)S(=O)(=O)C4CCOCC4)on3)CCCC2)o1 [drawing 84] |  |  | 30000 | 4.6 |
| Cc1cc(-c2n[nH]c(NC(=O)C(C)(C)S(=O)(=O)C3CCOCC3)n2)no1 | > 50000 | 268 |  |  |
| Cc1cc(-c2nnc(NC(=O)C(C)(C)S(=O)(=O)CCCC(F)(F)F)[nH]2)no1 | > 50000 | 271 |  |  |
| Cc1ncc(C(C)(C)c2cc(NC(=O)C(C)(C)S(=O)(=O)C3CCOCC3)on2)o1 |  |  | > 200000 | 6.8 |
| CC(C)CCS(=O)(=O)C(C)(C)C(=O)Nc1nnc(-c2ncco2)[nH]1 | > 50000 | 172 |  |  |
| Cc1ncc(C(C)(C)c2cc(NC(=O)C(C)(C)S(=O)(=O)C3CCN(S(C)(=O)=O)CC3)on2)s1 |  |  | 25100 | 28 |
| Cc1cc(-c2nnc(NC(=O)C(C)(C)S(=O)(=O)CCC3CCOCC3)[nH]2)on1 | > 50000 | 142 |  |  |
| Cc1cc(-c2nnc(NC(=O)C(C)(C)S(=O)(=O)C3CCCCC3)[nH]2)on1 |  |  | > 20000 | 55 |
| Cc1nnc(C(C)(C)c2cc(NC(=O)C(C)(C)S(=O)(=O)c3ccc(F)cc3)on2)o1 |  |  | > 50000 | 97 |
| CC(C)(C(=O)Nc1nc(-c2ncco2)n[nH]1)S(=O)(=O)C1CCOCC1 |  |  | > 50000 | 84 |
| Cc1ncc(C2(c3cc(NC(=O)C(C)(C)S(=O)(=O)C4CCOCC4)on3)CCCC2)o1 [drawing 89] |  |  | 30000 |  |
| Cc1cc(-c2n[nH]c(NC(=O)C(C)(C)S(=O)(=O)C3CCOCC3)n2)n(C)n1 | > 50000 | 487 |  |  |
| Cc1ncc(C(C)(C)c2cc(NC(=O)C(C)(C)S(=O)(=O)C3CCOCC3)on2)s1 |  |  | > 50000 | 3.4 |
| Cc1cc(-c2nnc(NC(=O)C(C)(C)S(=O)(=O)CCC(C)C)[nH]2)on1 | > 50000 | 142 |  |  |
| CC(C)(c1cc(NC(=O)C(C)(C)S(=O)(=O)C2CCOCC2)on1)c1cnc(-c2ccccc2)o1 |  |  | > 50000 | 21 |
| Cc1nnc(C(C)(C)c2cc(NC(=O)C(C)(C)S(=O)(=O)C3CCN(S(C)(=O)=O)CC3)on2)o1 | > 50000 | 161 |  |  |
| Cc1cc(-c2nnc(NC(=O)C(C)(C)S(=O)(=O)CCC(C)C)[nH]2)no1 |  |  | > 50000 | 37 |
| CCc1ncc(C(C)(C)c2cc(NC(=O)C(C)(C)S(=O)(=O)C3CCN(S(C)(=O)=O)CC3)on2)o1 |  |  | 26500 | 25 |
